We go through 20 compounds from patent US11878965B2, “Inhibitors of peptidylarginine deiminases” (Gilead Sciences, Inc., priority 2020, dated 2024).

The target in the assay is human PAD4 (Homo sapiens (Human), UniProt Q9UM07). Briefly: In Vitro PAD4 BAEE Biochemical Assay. Conditions: geometric mean of multiple experiments. The essentials: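 Recombinant human PAD4 (His-SUMO tag removed, E. coli-expressed), 5 nM, preincubated with compound and 2 mM CaCl2 30 min at 25 °C in MOPS pH 7.6 with DTT; 3 mM BAEE added for 2 h at 25 °C, EDTA stop. Released ammonia detected by o-phthalaldehyde/DTT fluorescence (ex 405, em 535 nm).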
Sequence of human PAD4 (Q9UM07 2-663): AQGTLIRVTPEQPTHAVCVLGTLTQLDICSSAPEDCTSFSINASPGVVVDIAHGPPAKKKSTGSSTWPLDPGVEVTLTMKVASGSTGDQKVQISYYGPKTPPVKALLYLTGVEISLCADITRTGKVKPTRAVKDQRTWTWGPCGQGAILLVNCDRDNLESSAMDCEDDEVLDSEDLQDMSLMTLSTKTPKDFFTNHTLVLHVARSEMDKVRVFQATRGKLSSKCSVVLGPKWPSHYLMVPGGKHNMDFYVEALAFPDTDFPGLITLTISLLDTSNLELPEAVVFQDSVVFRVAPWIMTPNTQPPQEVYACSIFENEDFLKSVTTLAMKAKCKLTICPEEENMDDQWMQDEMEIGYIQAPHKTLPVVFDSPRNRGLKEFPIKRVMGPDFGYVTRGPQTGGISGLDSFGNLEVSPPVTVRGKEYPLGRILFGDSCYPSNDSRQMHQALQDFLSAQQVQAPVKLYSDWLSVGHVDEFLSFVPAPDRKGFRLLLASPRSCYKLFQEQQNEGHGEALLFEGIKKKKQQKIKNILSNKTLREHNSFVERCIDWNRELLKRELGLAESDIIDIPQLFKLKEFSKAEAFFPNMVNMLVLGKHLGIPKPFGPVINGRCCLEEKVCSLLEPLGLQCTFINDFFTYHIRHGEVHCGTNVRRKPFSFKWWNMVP

Where [1] appears, read: human PAD4, BAEE substrate, 5 nM PAD4, 2 mM calcium chloride, 3 mM BAEE.

For orientation: IC50 means the concentration at which inhibition is half-maximal.

Regarding `COc1cc(C(=O)N2[C@H]3CC[C@@H]2[C@H](N)C3)cc2nc(-c3cc4ccc(N5[C@@H](C)CCCS5(=O)=O)nc4n3CC3CC3)n(C3CC3)c12` [Example 102, ((1R,2R,4S)-2-amino-7-azabicyclo[2.2.1]heptan-7-yl)(1-cyclopropyl-2-(1-(cyclopropylmethyl)-6-((S)-3-methyl-1,1-dioxido-1,2-thiazinan-2-yl)-1H-pyrrolo[2,3-b]pyridin-2-yl)-7-methoxy-1H-benzo[d]imidazol-5-yl)methanone], the IC50 under setting [1] came to 0.042 µM.
Same read-out and setting: in the case of `COc1cc(C(=O)N2C[C@H](N)CC[C@@H]2C)cc2nc(-c3cc4ccc(-c5c(C)ccnc5-c5ccccc5)nc4n3CC3CC3)n(C)c12` [Example 276, ((2S,5R)-5-amino-2-methylpiperidin-1-yl)(2-(1-(cyclopropylmethyl)-6-(4-methyl-2-phenylpyridin-3-yl)-1H-pyrrolo[2,3-b]pyridin-2-yl)-7-methoxy-1-methyl-1H-benzo[d]imidazol-5-yl)methanone] it was 0.423 µM; in that of `COc1cc(C(=O)N2C[C@H](N)CC[C@@H]2C)cc2nc(-c3cc4ccc(N5CCCC5=O)nc4n3CC3CC3)n(C)c12` [Example 279, 1-(2-(5-((2S,5R)-5-amino-2-methylpiperidine-1-carbonyl)-7-methoxy-1-methyl-1H-benzo[d]imidazol-2-yl)-1-(cyclopropylmethyl)-1H-pyrrolo[2,3-b]pyridin-6-yl)pyrrolidin-2-one], 1.18 µM; in that of `COc1cc(C(=O)N2C[C@H](N)CCN2C)cc2nc(-c3cc4ccc([C@@H](C)NC(=O)c5cc(F)ccc5C)nc4n3CC3CC3)n(C)c12` [Example 197, N-((R)-1-(2-(5-((R)-5-amino-2-methylhexahydropyridazine-1-carbonyl)-7-methoxy-1-methyl-1H-benzo[d]imidazol-2-yl)-1-(cyclopropylmethyl)-1H-pyrrolo[2,3-b]pyridin-6-yl)ethyl)-5-fluoro-2-methylbenzamide], 0.116 µM.
On the same count and under the same terms, in the case of `COc1cc(C(=O)N2C[C@H](N)CCN2C)cc2nc(-c3cc4ccc([C@@H](C)NC(=O)[C@@H](C)c5ccccc5)nc4n3CC3CC3)n(C)c12` [Example 165, (S)-N-((R)-1-(2-(5-((R)-5-amino-2-methylhexahydropyridazine-1-carbonyl)-7-methoxy-1-methyl-1H-benzo[d]imidazol-2-yl)-1-(cyclopropylmethyl)-1H-pyrrolo[2,3-b]pyridin-6-yl)ethyl)-2-phenylpropanamide] it was 0.0914 µM.
Same read-out and setting: as for `CNC(=O)N(C)c1ccc2cc(-c3nc4cc(C(=O)N5CCC[C@@H](N)C5)cc(OC)c4n3C)n(CC3CC3)c2n1` [Example 116, (R)-1-(2-(5-(3-aminopiperidine-1-carbonyl)-7-methoxy-1-methyl-1H-benzo[d]imidazol-2-yl)-1-(cyclopropylmethyl)-1H-pyrrolo[2,3-b]pyridin-6-yl)-1,3-dimethylurea], the figure is 0.496 µM; as for `COc1cc(C(=O)N2C[C@H](N)CCN2C)cc2nc(-c3cc4ccc([C@@H](C)NC(=O)c5cc(C)nc(C)c5)nc4n3CC3CC3)n(C)c12` [Example 179, N-((R)-1-(2-(5-((R)-5-amino-2-methylhexahydropyridazine-1-carbonyl)-7-methoxy-1-methyl-1H-benzo[d]imidazol-2-yl)-1-(cyclopropylmethyl)-1H-pyrrolo[2,3-b]pyridin-6-yl)ethyl)-2,6-dimethylisonicotinamide], 0.0775 µM; as for `COc1cc(C(=O)N2CCC[C@@H](N)C2)cc2nc(-c3cc4ccc(N(CC5CC5)S(C)(=O)=O)nc4n3CC3CC3)n(C)c12` [Example 20, (R)-N-(2-(5-(3-aminopiperidine-1-carbonyl)-7-methoxy-1-methyl-1H-benzo[d]imidazol-2-yl)-1-(cyclopropylmethyl)-1H-pyrrolo [2,3-b]pyridin-6-yl)-N-(cyclopropylmethyl) methanesulfonamide], 50 µM.
Consider `[2H][C@]1(N)CCCN(C(=O)c2cc(OC)c3c(c2)nc(-c2cc4ccc(N(C(F)F)S(C)(=O)=O)nc4n2CC2CC2)n3C)C1` [Example 46, (S)-N-(2-(5-(3-aminopiperidine-1-carbonyl-3-d)-7-methoxy-1-methyl-1H-benzo[d]imidazol-2-yl)-1-(cyclopropylmethyl)-1H-pyrrolo[2,3-b]pyridin-6-yl)-N-(difluoromethyl) methanesulfonamide], for which, under setting [1], the IC50 amounted to 1.16 µM.
Take `COc1cc(C(=O)N2C[C@H](N)CCN2C)cc2nc(-c3cc4ccc([C@@H](C)NC(=O)C56CC(Cl)(C5)C6)nc4n3CC3CC3)n(C)c12` [Example 186, N—((R)-1-(2-(5-((R)-5-amino-2-methylhexahydropyridazine-1-carbonyl)-7-methoxy-1-methyl-1H-benzo[d]imidazol-2-yl)-1-(cyclopropylmethyl)-1H-pyrrolo[2,3-b]pyridin-6-yl)ethyl)-3-chlorobicyclo[1.1.1]pentane-1-carboxamide]: the IC50 under setting [1] amounted to 0.105 µM.
On the same count and under the same terms, in the case of `COc1cc(C(=O)N2CCCC(C)(N)C2)cc2nc(-c3cc4ccc(N(C(F)F)S(C)(=O)=O)nc4n3CC3CC3)n(C)c12` (centres unmarked) [Example 52, N-(2-(5-(3-amino-3-methylpiperidine-1-carbonyl)-7-methoxy-1-methyl-1H-benzo[d]imidazol-2-yl)-1-(cyclopropylmethyl)-1H-pyrrolo [2,3-b]pyridin-6-yl)-N-(difluoromethyl) methanesulfonamide] it was 12.7 µM; in that of `COc1cc(C(=O)N2CCC[C@@H](N)C2)cc2nc(-c3cc4ccc(N(C5CC5)S(=O)(=O)C5CC5)nc4n3CC3CC3)n(C)c12` [Example 26, (R)-N-(2-(5-(3-aminopiperidine-1-carbonyl)-7-methoxy-1-methyl-1H-benzo[d]imidazol-2-yl)-1-(cyclopropylmethyl)-1H-pyrrolo [2,3-b]pyridin-6-yl)-N-cyclopropylcyclo-propanesulfonamide], 0.106 µM.
Still for that read-out and setting: in the case of `COc1cc(C(=O)N2C[C@H](N)[C@@H]3CC[C@H]2C3)cc2nc(-c3cc4ccc([C@@H](C)NC(=O)C(C)(C)C)nc4n3CC3CC3)n(C)c12` [Example 221, N-((R)-1-(2-(5-((1S,4R,5R)-4-amino-2-azabicyclo[3.2.1]octane-2-carbonyl)-7-methoxy-1-methyl-1H-benzo[d]imidazol-2-yl)-1-(cyclopropylmethyl)-1H-pyrrolo[2,3-b]pyridin-6-yl)ethyl)pivalamide] it was 0.061 µM.
`COc1cc(C(=O)N2C[C@H](N)[C@@H]3CC[C@H]2C3)cc2nc(-c3cc4ccc([C@@H](C)NC(=O)c5ccc(C(F)F)nc5)nc4n3CC3CC3)n(C3CC3)c12` [Example 309, N-((R)-1-(2-(5-((1S,4R,5R)-4-amino-2-azabicyclo[3.2.1]octane-2-carbonyl)-1-cyclopropyl-7-methoxy-1H-benzo[d]imidazol-2-yl)-1-(cyclopropylmethyl)-1H-pyrrolo[2,3-b]pyridin-6-yl)ethyl)-6-(difluoromethyl)nicotinamide]: the IC50 (recombinant PAD4 5 nM, 2 mM calcium chloride, 3 mM BAEE substrate) worked out at 0.111 µM.
For `COc1cc(C(=O)N2C[C@H](N)CC[C@@H]2C)cc2nc(-c3cc4ccc(-c5cccnc5N5CCNCC5)nc4n3CC3CC3)n(C)c12` [Example 264, ((2S,5R)-5-amino-2-methylpiperidin-1-yl)(2-(1-(cyclopropylmethyl)-6-(2-(piperazin-1-yl)pyridin-3-yl)-1H-pyrrolo[2,3-b]pyridin-2-yl)-7-methoxy-1-methyl-1H-benzo[d]imidazol-5-yl)methanone], the IC50 under setting [1] worked out at 1.87 µM.
On the same count and under the same terms, as for `COc1cc(C(=O)N2C[C@H](N)CC[C@@H]2C)cc2nc(-c3cc4ccc(-c5cccc6c5CNC6=O)nc4n3CC3CC3)n(C)c12` [Example 262, 4-(2-(5-((2S,5R)-5-amino-2-methylpiperidine-1-carbonyl)-7-methoxy-1-methyl-1H-benzo[d]imidazol-2-yl)-1-(cyclopropylmethyl)-1H-pyrrolo[2,3-b]pyridin-6-yl)isoindolin-1-one], the figure is 0.584 µM.
For `COc1cc(C(=O)N2C[C@H](N)CCN2C)cc2nc(-c3cc4ccc([C@@H](C)NC(=O)c5ccc(C)nc5C)nc4n3CC3CC3)n(C)c12` [Example 214, N-((R)-1-(2-(5-((R)-5-amino-2-methylhexahydropyridazine-1-carbonyl)-7-methoxy-1-methyl-1H-benzo[d]imidazol-2-yl)-1-(cyclopropylmethyl)-1H-pyrrolo[2,3-b]pyridin-6-yl)ethyl)-2,6-dimethylnicotinamide], the IC50 under setting [1] was 0.1 µM.
For `COc1cc(C(=O)N2C[C@H](N)CCN2C)cc2nc(-c3cc4ccc([C@@H](C)NC(=O)c5c(C)ccnc5C)nc4n3CC3CC3)n(C)c12` [Example 178, N-((R)-1-(2-(5-((R)-5-amino-2-methylhexahydropyridazine-1-carbonyl)-7-methoxy-1-methyl-1H-benzo[d]imidazol-2-yl)-1-(cyclopropylmethyl)-1H-pyrrolo[2,3-b]pyridin-6-yl)ethyl)-2,4-dimethylnicotinamide], under setting [1], the IC50 is 0.0804 µM.
Consider `COc1cc(C(=O)N2CCC[C@@H](N)C2)cc2nc(-c3cc4cc(F)c([C@@H](C)NC(=O)c5cnn(C)c5)cc4n3CC3CC3)n(C)c12` [Example 150, N-((R)-1-(2-(5-((R)-3-aminopiperidine-1-carbonyl)-7-methoxy-1-methyl-1H-benzo[d]imidazol-2-yl)-1-(cyclopropylmethyl)-5-fluoro-1H-indol-6-yl)ethyl)-1-methyl-1H-pyrazole-4-carboxamide], for which, under setting [1], the IC50 was found to be 0.116 µM.
On the same count and under the same terms, in the case of `CS(=O)(=O)N(c1ccc2cc(-c3nc4cc(C(=O)N5C[C@H]6CC[C@@H]5[C@@H]6N)ccc4n3C3CC3)n(CC3CC3)c2n1)C(F)F` [Example 55, N-(2-(5-((1R,4R,7R)-7-amino-2-azabicyclo[2.2.1]heptane-2-carbonyl)-1-cyclopropyl-1H-benzo[d]imidazol-2-yl)-1-(cyclopropylmethyl)-1H-pyrrolo[2,3-b]pyridin-6-yl)-N-(difluoromethyl) methanesulfonamide] it was 0.0896 µM.
